Laboratory results: patent US11531036B2, “Method and apparatus for determining the efficacy of statins for treating inflammatory diseases in individual patients” (Queen Mary University of London, priority 2017, dated 2022)

Columns and labels:
[1] = system: 13-series resolvins (RvT); assay: Lipid mediator profiling (LC-MS/MS) of paws in K/BxN serum inflammatory arthritis; type: in vivo, mice; conditions: for increase in overall RvT amounts in joints/paws compared with vehicle: paws collected day 8, 24 h after last dose
Procedure: (§1) JCI Insight. 2016; 1(5):e85922.
(§2) Blood and paws were collected either on day 8 after arthritis onset or 2 h after statin injection on day 7.
Ice-cold methanol containing 500 pg of each deuterated (d) internal standard: d8-SSHydroxyeicosatetraenoic, d4-Leukotriene (LT) B4, d5-Lipoxin (LX) A4, d-Prostaglandin (PG) E2 and d5-Resolvin D2, was added to samples. […] J Clin Invest. 2017; 127(1):169-182.
Using multiple reaction monitoring the concentrations of mediators identified in these paws were quantified.

Male C57BL/6 mice = assay: K/BxN serum inflammatory arthritis: 26-point clinical score, paw swelling, knee H&E histology; type: in vivo; conditions: 0.2 mg/Kg days 3, 5, 7
Procedure: Male C57BL/6 mice (11 weeks old) were procured from Charles River (Kent, UK). All animals were provided with standard laboratory diet and water ad libitum and kept on a 12 h light/dark cycle.
as §1, §2
Arthritis was initiated and mice were treated and disease progression monitored as described above.

[2] = system: circulating monocytes, neutrophils and platelets; assay: Flow cytometry of circulating leukocytes and platelets in inflammatory arthritis; type: in vivo, mice; conditions: 0.2 mg/Kg days 3, 5, 7; blood day 8, vs vehicle
[3] = system: 13-series resolvins (RvT) and eicosanoids; conditions: blood 2 h after last statin dose on day 7
[4] = clearance from the circulation; cited from earlier work
[5] = system: joint non-classical monocytes, neutrophils and monocyte-derived macrophages; assay: Flow cytometry of leukocytes isolated from inflamed paws/joints; type: in vivo, mice; conditions: paws day 8, vs vehicle
Procedure: Front paws were collected on day 8 and digested to liberate infiltrating leukocytes. Leukocyte subsets were defined using antibodies against specific markers and flow cytometry. Trafficking and activation of (A) non-classical monocytes, (B) neutrophils, (C) monocyte-derived macrophages were assessed.
as §1
Paws were harvested and leukocytes isolated as described in Dalli J et al. 2015 (ibid). Briefly, paws were incubated in RPMI-1640 (containing […] collagenase D and 40 µg/mL DNAse I) at 37° C. for 30 minutes with vigorous agitation. Isolated cells were passed through a […] strainer and suspended in RPMI-1640 containing […] and 10% FBS, then centrifugated at 400×g, 10 minutes. Isolated cells were suspended in DPBS−/− containing 0.02% BSA and 1% Fc-blocking IgG (v/v), and incubated with 0.1% Live/Dead stain for 20 minutes on ice. Cells were washed using DPBS−/− and incubated with fluorescent-labelled antibodies for 45 minutes on ice. These were then washed and fixed using 1% paraformaldehyde. Absolute counting beads were used for leukocyte enumeration. Staining was then evaluated using a flow cytometry analyser and analysed using suitable software.
First, the trafficking of non-classical monocytes to the inflamed joints was assessed, given their role in disease onset and propagation of K/B×N serum initiated inflammatory arthritis.

E. coli infections = conditions: atorvastatin and RvTs, additive actions; cited from earlier work
[6] = celecoxib 10 mg/Kg 1 h prior to pravastatin or atorvastatin, paws day 8

SMILES: CC[C@H](C)C(=O)O[C@H]1C[C@H](O)C=C2C=C[C@H](C)[C@H](CC[C@@H](O)C[C@@H](O)CC(=O)O)[C@H]21 [pravastatin]
- increase in overall RvT amounts in joints/paws compared with vehicle ([1]; 0.2 mg/Kg i.v. days 3, 5, 7): ~20%
- reduction in disease activity compared with vehicle (Male C57BL/6 mice; day 5 through day 7): ~23%
- reduction in CD11b expression on circulating classical monocytes [2]: ~40%
- reduction in CD11b expression on circulating non-classical monocytes [2]: ~10%
- reduction in platelet CD62P expression [2]: ~70%
- reduction in platelet-monocyte aggregates (both monocyte subsets) [2]: ~35%
- reduction in platelet-neutrophil aggregates [2]: ~25%
- decrease in circulating PGD2 [3]: ~46%
- decrease in circulating PGE2 [3]: ~29%
- increase in plasma/peripheral blood RvT compared with vehicle [3]: > 100%
- half-life [4]: ~3 h

SMILES: CC(C)c1c(C(=O)Nc2ccccc2)c(-c2ccccc2)c(-c2ccc(F)cc2)n1CC[C@@H](O)C[C@@H](O)CC(=O)O [atorvastatin]
- increase in overall RvT amounts in joints/paws compared with vehicle ([1]; 0.2 mg/Kg i.v. days 3, 5, 7): 43%
- individual RvT increased in paws compared with vehicle ([1]; 0.2 mg/Kg i.v. days 3, 5, 7, paws day 8): increased RvT1, RvT2, RvT3 and RvT4
- joint swelling (midfoot pad thickness) (Male C57BL/6 mice): reduced joint swelling
- H&E knee joint sections: leukocyte infiltration, pannus formation and joint damage (Male C57BL/6 mice; day 8, vs vehicle): reduced leukocyte infiltration, pannus formation and joint damage
- maximum disease score (26-point clinical score) (Male C57BL/6 mice; maximum at day 5): 9.1±1.2
- neutrophil CD11b expression (circulating) [2]: significantly reducing
- reduction in CD11b expression on circulating classical monocytes [2]: regulated
- reduction in CD11b expression on circulating non-classical monocytes [2]: regulated
- reduction in platelet CD62P expression [2]: ~60%
- reduction in platelet-monocyte aggregates (both monocyte subsets) [2]: regulated
- reduction in platelet-neutrophil aggregates [2]: significantly reducing
- reduction in total numbers of non-classical monocytes recruited to the joints ([5]; 0.2 mg/Kg days 3, 5, 7): > 60%
- CD11b expression on joint non-classical monocytes ([5]; 0.2 mg/Kg): reduction
- MHCII expression on joint non-classical monocytes ([5]; 0.2 mg/Kg): significant reduction
- joint neutrophil CD11b and MHCII expression ([5]; 0.2 mg/Kg): did not reach statistical significance
- neutrophil trafficking to the joint ([5]; 0.2 mg/Kg): decreased
- number of monocyte-derived macrophages in joints and their CD11b and MHCII expression ([5]; 0.2 mg/Kg): significant reduction
- decrease in circulating PGD2 [3]: decreased
- decrease in circulating PGE2 [3]: decreased
- increased survival (E. coli infections): > 60%

SMILES: Cc1ccc(-c2cc(C(F)(F)F)nn2-c2ccc(S(N)(=O)=O)cc2)cc1 [celecoxib]
- reduction in joint RvT1 concentration compared to statin alone [1, 6]: > 75%
- reduction in joint RvT compared to statin alone [1, 6]: ~60%
